# Measured values: PubChem BioAssay (NCI)
#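 Cells were grown in 96-well plates and exposed to each compound for 48 hours at five concentrations; endpoints were interpolated linearly between bracketing concentrations, or set to the highest concentration if not reached. The concentration for full growth arrest is given as TGI.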
# Experiments:
# Test in all cases: NCI-60 cell line screen, 48 h
# [1] = test system: 786-0 renal
# [2] = test system: HL-60(TB) leukemia
# [3] = test system: IGROV1 ovarian
# [4] = test system: KM12 colon
# [5] = test system: MALME-3M melanoma
# [6] = test system: NCI-H23 lung
# [7] = test system: OVCAR-5 ovarian
# [8] = test system: RPMI-8226 leukemia
# [9] = test system: OVCAR-3 ovarian
# [10] = test system: A498 renal
Compound,TGI [1] [µM],TGI [2] [µM],TGI [3] [µM],TGI [4] [µM],TGI [5] [µM],TGI [6] [µM],TGI [7] [µM],TGI [8] [µM],TGI [9] [µM],TGI [10] [µM]
O=C1O[C@H](c2ccc3c(c2)OCO3)[C@H]2CO[C@@H](c3ccc4c(c3)OCO4)[C@@H]12,> 100,> 100,> 100,> 100,> 100,> 100,> 100,> 100,,
Cn1c2ccccc2c(=O)c2cccc(C(=O)NC(CCCN=C(N)N)C(=O)O)c21 (centres undefined),> 100,,> 100,> 100,> 100,> 100,> 100,> 100,> 100,
CC1CCCC(CC(=O)O)(CC(=O)O)C1 (centres undefined),> 100,> 100,> 100,> 100,> 100,> 100,> 100,> 100,,> 100
CC(=O)NC1c2ccccc2C(C)(C)C12CCC1(CC2)OCCO1 (centres undefined),> 100,> 100,> 100,> 100,> 100,> 100,> 100,> 100,,
CCC1(C)C=Cc2c(cc(O)c3c(=O)c4ccccc4n(C)c23)O1 (centres undefined),> 10,,> 10,> 10,> 10,> 10,> 10,> 10,> 10,> 10
O=NN(CCCl)C(=O)NC1CCC(O)CC1 (centres undefined),,41.9,> 100,> 100,> 71.1,> 100,> 100,34.9,> 89.8,> 100
CCNC(=O)Nc1cccc(NC(=O)NCC)n1,> 100,> 100,> 100,> 100,> 100,> 100,> 100,,> 100,> 100
O=[N+]([O-])/C(C(Cl)=C(Cl)Cl)=C(\N1CCCCC1)n1cncn1,52.4,,24,40.8,30.9,30.2,32.1,57.2,32.2,31.4
CN1COCc2c1ccc1cc3ccc4c(c3nc21)COCN4S(C)(=O)=O,> 100,,> 100,> 100,> 100,> 100,> 100,,> 100,> 100
Cc1nc2sc3ccccc3n2c(=O)c1N=Nc1ccc(Cl)cc1,> 100,> 100,> 100,> 100,> 100,> 100,> 100,> 100,> 100,
O=c1oc2ccc([N+](=O)[O-])cc2c(Nc2ccc3c(c2)Oc2ccccc2O3)c1[N+](=O)[O-],67.9,40.2,> 100,> 100,> 100,62.3,> 100,70.2,> 100,
Cc1ccc(S(=O)(=O)C(C#N)c2nc3ccccc3nc2-n2ccnc2)cc1 (centres undefined),> 100,> 100,> 100,> 100,> 100,> 100,> 100,> 100,> 100,
